Source: PMC6395927, “Rufomycin Targets ClpC1 Proteolysis in Mycobacterium tuberculosis and M. abscessus” (Antimicrobial Agents and Chemotherapy, 2019)
≈ marks a conversion by molar mass, not a printed value. Like-named read-outs stand apart in the source and are kept apart here. Numbered stars: 1 amine (or outer) side, 2 acyl side, 3 side chain; on linkers, the order of the positions; unused ones are H or OH. Square brackets hold non-standard residues; d marks the D form. Peptide text beside a SMILES is read from it. ξ: configuration not given here. X4 = CC(C)(C1CO1)n1cc(C[C@H](N[*:1])C(=O)[*:2])c2ccccc21; Tyr(3-NO2) = N[C@@H](Cc1ccc(O)c([N+](=O)[O-])c1)C(=O)O; X3 = CC(CC(C(=O)[*:2])N(C)[*:1])C(=O)O; Gly(E-crotyl) = C/C=C/C[C@H](N)C(=O)O; NMeL = CN[C@@H](CC(C)C)C(=O)O; ξNMeL = CNC(CC(C)C)C(=O)O

Assays:
[1] = tested on: M. tuberculosis strain H37Rv (ATCC 27294); assay: microbe, parasite or virus in culture; assay type: cell-based, Mycobacterium tuberculosis
[2] = tested on: Candida albicans (ATCC 10231); assay: MIC against nonmycobacteria (OD570); assay type: cell-based; settings: ATCC10231, C. albicans
Text: Standard compounds used were ampicillin (AMP) and gentamicin (GEN). […] Amphotericin B (AmphB) and ketoconazole (KETO) were used as standard compounds.

[3] = tested on: OVCAR 3 ovarian cancer cells; assay: Cytotoxicity against cancer cell lines (CellTiter 96); assay type: cell-based; settings: Homo sapiens; OVCAR 3, paclitaxel column
Description: (§1) Human melanoma cancer cells (MDA-MB-435), human breast cancer cells (MDA-MB-231), and human ovarian cancer cells (OVCAR3) were purchased from the American Type Culture Collection (Manassas, VA). Each cell line was propagated at 37°C in 5% CO2 in RPMI 1640 medium supplemented with FBS (10%), penicillin (100 U/ml), and streptomycin (100 μg/ml). Cells in log phase were harvested by trypsinization, followed by two washing cycles to remove all traces of enzyme. A total of 5,000 cells were seeded per well of a 96-well clear, flat-bottom plate (Microtest 96; Falcon) and incubated overnight (37°C in 5% CO2). Samples dissolved in DMSO were then diluted and added to the respective wells. The cells were incubated in the presence of test substance for 72 h at 37°C and evaluated for viability with a commercial absorbance assay (CellTiter 96 AQueous One Solution cell proliferation assay; Promega Corp., Madison, WI) that measured viable cells. IC50 values are expressed in micromolar values relative to the solvent (DMSO) control.

[4] = tested on: MDA-MB-435 melanoma cells; assay: as above; assay type: cell-based; settings: Homo sapiens; MDA-MB-435, paclitaxel column
Description: as §1

[5] = tested on: MDA-MB-231 breast cancer cells; assay: as above; assay type: cell-based; settings: Homo sapiens; MDA-MB-231, paclitaxel column
Description: as §1

[6] = tested on: M. smegmatis (ATCC 700084); assay: microbe, parasite or virus in culture; assay type: cell-based; settings: Mycolicibacterium smegmatis, ATCC700084; M. smegmatis; read-out: MIC
[7] = tested on: M. abscessus (ATCC 19977); assay: microbe, parasite or virus in culture; assay type: cell-based, Mycobacterium abscessus; settings: Mycobacteroides abscessus, ATCC19977, M. abscessus; read-out: MIC
[8] = tested on: M. chelonae (ATCC 35752); assay: microbe, parasite or virus in culture; assay type: cell-based, Mycobacterium chelonae; settings: Mycobacteroides chelonae, ATCC35752; M. chelonae; read-out: MIC
[9] = tested on: M. kansasii (ATCC 12478); assay: microbe, parasite or virus in culture; assay type: cell-based; settings: Mycobacterium kansasii, ATCC12478; M. kansasii; read-out: MIC
[10] = tested on: M. avium (ATCC 15769); assay: microbe, parasite or virus in culture; assay type: cell-based; settings: Mycobacterium avium, ATCC15769; M. avium; read-out: MIC
[11] = tested on: M. bovis (ATCC 35734); assay: microbe, parasite or virus in culture; assay type: cell-based; settings: Mycobacterium tuberculosis variant bovis, ATCC35734
[12] = tested on: M. marinum (ATCC 927); assay: microbe, parasite or virus in culture; assay type: cell-based; settings: Mycobacterium marinum, ATCC927; M. marinum; read-out: MIC
[13] = tested on: M. tuberculosis 5 global clade representatives; assay: microbe, parasite or virus in culture; assay type: cell-based; settings: Mycobacterium tuberculosis, read-out: MICs
[14] = Mycobacterium tuberculosis, read-out: MIC against M. tuberculosis

C/C=C/C[C@@H]1NC(=O)[C@H](CC(C)C)NC(=O)C(CC(C)C)N(C)C(=O)[C@H](C)NC(=O)[C@H](Cc2ccc(O)c([N+](=O)[O-])c2)NC(=O)[C@H](CC(C)C)N(C)C(=O)[C@H](Cc2cn(C(C)(C)C3CO3)c3ccccc23)NC1=O (stereo partly drawn) [V] (cyclo(A[ξNMeL]L[Gly(E-crotyl)][X4][NMeL][Tyr(3-NO2)]))
MIC [1, 14]: 0.07 µM (≈ 0.072 µg/mL)

C/C=C/C[C@@H]1NC(=O)[C@H](CC(C)C)NC(=O)C(CC(C)C(=O)O)N(C)C(=O)[C@H](C)NC(=O)[C@H](Cc2ccc(O)c([N+](=O)[O-])c2)NC(=O)[C@H](CC(C)C)N(C)C(=O)[C@H](Cc2cn(C(C)(C)C3CO3)c3ccccc23)NC1=O (stereo partly drawn) [VII] (cyclo(A[X3]L[Gly(E-crotyl)][X4][NMeL][Tyr(3-NO2)]))
MIC [1, 14]: 1 µM (≈ 1.06 µg/mL)

capreomycin
MIC [1]: 0.39 µM

C[C@@H]1[C@H](O)[C@@H](C)/C=C/C=C/C=C/C=C/C=C/C=C/C=C/[C@H](O[C@@H]2O[C@H](C)[C@@H](O)[C@H](N)[C@@H]2O)C[C@@H]2O[C@](O)(C[C@@H](O)C[C@@H](O)[C@H](O)CC[C@@H](O)C[C@@H](O)CC(=O)O[C@H]1C)C[C@H](O)[C@H]2C(=O)O [AmphB, amphotericin B]
MIC [2]: 2.6 µM (≈ 2.4 µg/mL)

COc1c(N2C[C@@H]3CCCN[C@@H]3C2)c(F)cc2c(=O)c(C(=O)O)cn(C3CC3)c12 [MXF, moxifloxacin]
MIC ([1]; Mycobacterium tuberculosis): 0.26 µM (≈ 0.104 µg/mL)

CC(=O)O[C@H]1C(=O)[C@@]2(C)[C@H]([C@H](OC(=O)c3ccccc3)[C@]3(O)C[C@H](OC(=O)[C@H](O)[C@@H](NC(=O)c4ccccc4)c4ccccc4)C(C)=C1C3(C)C)[C@]1(OC(C)=O)CO[C@@H]1C[C@@H]2O [paclitaxel]
IC50 [3]: 1.5 nM | IC50 [4]: 0.1 nM | IC50 [5]: 170 nM

C/C=C/C[C@@H]1NC(=O)[C@H](CC(C)C)N2C(=O)C(C[C@@H](C)[C@H]2O)N(C)C(=O)[C@H](C)NC(=O)[C@H](Cc2ccc(O)c([N+](=O)[O-])c2)NC(=O)[C@H](CC(C)C)N(C)C(=O)[C@H](Cc2cn(C(C)(C)C3CO3)c3ccccc23)NC1=O (stereo partly drawn) [II]
MIC [1, 14]: 0.05 µM (≈ 0.0521 µg/mL)

[H]/N=C(/N)N[C@H]1[C@H](O)[C@@H](O)[C@H](O[C@@H]2O[C@@H](C)[C@](O)(C=O)[C@H]2O[C@@H]2O[C@@H](CO)[C@H](O)[C@@H](O)[C@@H]2NC)[C@@H](N/C(N)=N\[H])[C@@H]1O [STR, streptomycin]
MIC ([1]; Mycobacterium tuberculosis): 0.15 µM (≈ 0.0872 µg/mL)

CC(=O)N1CCN(c2ccc(OCC3COC(Cn4ccnc4)(c4ccc(Cl)cc4Cl)O3)cc2)CC1 (stereo not drawn) [KETO, ketoconazole]
MIC [2]: 0.98 µM (≈ 0.521 µg/mL)

CC(C)/N=c1\cc2n(-c3ccc(Cl)cc3)c3ccccc3nc-2cc1Nc1ccc(Cl)cc1 [CLO, clofazimine]
MIC [6]: 2.39 µM (≈ 1.13 µg/mL) | MIC [7]: 9.23 µM (≈ 4.37 µg/mL) | MIC [8]: 10 µM (≈ 4.73 µg/mL) | MIC [9]: < 0.2 µM | MIC [10]: < 0.2 µM | MIC [11]: < 0.2 µM | MIC [12]: 0.34 µM (≈ 0.161 µg/mL)

NNC(=O)c1ccncc1 [INH, isoniazid]
MIC ([1]; Mycobacterium tuberculosis): 0.23 µM (≈ 0.0315 µg/mL) | MIC [13]: 0.25 to 0.47 µM (≈ 0.0343 to 0.0645 µg/mL) | MIC [6]: 360 µM (≈ 49.4 µg/mL) | MIC [7]: > 8 µM | MIC [8]: > 8 µM | MIC [9]: 3.84 µM (≈ 0.527 µg/mL) | MIC [10]: > 8 µM | MIC [11]: 0.48 µM (≈ 0.0658 µg/mL) | MIC [12]: > 8 µM
